# Measurements: ChEMBL document CHEMBL3526135, “Induction of xenobiotic receptors, transporters, and drug metabolizing enzymes by oxycodone” (Drug Metab Dispos, 2013)
# Columns and labels:
# Assay type in all cases: ADME, organism-based; call rule not given here
# Design in all cases: dose 15 mg/kg, route intraperitoneal
# Rattus norvegicus [1] = assay: Effect on Por mRNA expression in Sprague-Dawley rat liver at 15 mg/kg, ip administered twice daily every 12 hrs for 8 days by qRT-PCR analysis relative to control; conditions: in vivo
# Rattus norvegicus [2] = assay: Effect on CAR mRNA expression in Sprague-Dawley rat liver at 15 mg/kg, ip administered twice daily every 12 hrs for 8 days by qRT-PCR analysis relative to control; conditions: in vivo
# Rattus norvegicus [3] = assay: Effect on Abcb1a mRNA expression in Sprague-Dawley rat liver at 15 mg/kg, ip administered twice daily every 12 hrs for 8 days by qRT-PCR analysis relative to control; conditions: in vivo
# Rattus norvegicus [4] = assay: Effect on Fkbp5 mRNA expression in Sprague-Dawley rat liver at 15 mg/kg, ip administered twice daily every 12 hrs for 8 days by qRT-PCR analysis relative to control; conditions: in vivo
# Rattus norvegicus [5] = assay: Effect on Slc15a3 mRNA expression in Sprague-Dawley rat liver at 15 mg/kg, ip administered twice daily every 12 hrs for 8 days by qRT-PCR analysis relative to control; conditions: in vivo
# Rattus norvegicus [6] = assay: Effect on CYP2c13 mRNA expression in Sprague-Dawley rat liver at 15 mg/kg, ip administered twice daily every 12 hrs for 8 days by qRT-PCR analysis relative to control; conditions: in vivo
# Rattus norvegicus [7] = assay: Effect on CYP3a1 mRNA expression in Sprague-Dawley rat liver at 15 mg/kg, ip administered twice daily every 12 hrs for 8 days by qRT-PCR analysis relative to control; conditions: in vivo
# Rattus norvegicus [8] = assay: Effect on Slc38a4 mRNA expression in Sprague-Dawley rat liver at 15 mg/kg, ip administered twice daily every 12 hrs for 8 days by qRT-PCR analysis relative to control; conditions: in vivo
# Rattus norvegicus [9] = assay: Effect on CYP2d1 mRNA expression in Sprague-Dawley rat liver at 15 mg/kg, ip administered twice daily every 12 hrs for 8 days by qRT-PCR analysis relative to control; conditions: in vivo
# CYP3A1 = assay: Upregulation of CYP3A1 protein expression in Sprague-Dawley rat liver microsomes at 15 mg/kg, ip administered twice daily every 12 hrs for 8 days by Western blot analysis relative to control; conditions: read-out: FC
# CYP2b2 [10] = assay: Upregulation of CYP2b2 protein expression in Sprague-Dawley rat liver microsomes at 15 mg/kg, ip administered twice daily every 12 hrs for 8 days by Western blot analysis relative to control; conditions: read-out: FC
# ABCB1 = assay: Upregulation of ABCB1 protein expression in Sprague-Dawley rat liver microsomes at 15 mg/kg, ip administered twice daily every 12 hrs for 8 days by Western blot analysis relative to control; conditions: read-out: FC
# CYP17a1 = assay: Effect on CYP17a1 mRNA expression in Sprague-Dawley rat liver at 15 mg/kg, ip administered twice daily every 12 hrs for 8 days by microarray analysis relative to control; conditions: read-out: FC
# Por = assay: Effect on Por mRNA expression in Sprague-Dawley rat liver at 15 mg/kg, ip administered twice daily every 12 hrs for 8 days by microarray analysis relative to control; conditions: read-out: FC
# CYP2b2 [11] = assay: Effect on CYP2b2 mRNA expression in Sprague-Dawley rat liver at 15 mg/kg, ip administered twice daily every 12 hrs for 8 days by microarray analysis relative to control; conditions: read-out: FC
# FMO1 = assay: Effect on FMO1 mRNA expression in Sprague-Dawley rat liver at 15 mg/kg, ip administered twice daily every 12 hrs for 8 days by microarray analysis relative to control; conditions: read-out: FC
# Ugt1a1 = assay: Effect on Ugt1a1 mRNA expression in Sprague-Dawley rat liver at 15 mg/kg, ip administered twice daily every 12 hrs for 8 days by microarray analysis relative to control; conditions: read-out: FC
# CYP4a10 = assay: Effect on CYP4a10 mRNA expression in Sprague-Dawley rat liver at 15 mg/kg, ip administered twice daily every 12 hrs for 8 days by microarray analysis relative to control; conditions: read-out: FC
# CYP27a1 = assay: Effect on CYP27a1 mRNA expression in Sprague-Dawley rat liver at 15 mg/kg, ip administered twice daily every 12 hrs for 8 days by microarray analysis relative to control; conditions: read-out: FC
# CYP4b1 = assay: Effect on CYP4b1 mRNA expression in Sprague-Dawley rat liver at 15 mg/kg, ip administered twice daily every 12 hrs for 8 days by microarray analysis relative to control; conditions: read-out: FC
# CYP2a1 = assay: Effect on CYP2a1 mRNA expression in Sprague-Dawley rat liver at 15 mg/kg, ip administered twice daily every 12 hrs for 8 days by microarray analysis relative to control; conditions: read-out: FC
# CYP2e1 = assay: Effect on CYP2e1 mRNA expression in Sprague-Dawley rat liver at 15 mg/kg, ip administered twice daily every 12 hrs for 8 days by microarray analysis relative to control; conditions: read-out: FC
# Slc16a10 = assay: Effect on Slc16a10 mRNA expression in Sprague-Dawley rat liver at 15 mg/kg, ip administered twice daily every 12 hrs for 8 days by microarray analysis relative to control; conditions: read-out: FC
# Slc22a5 = assay: Effect on Slc22a5 mRNA expression in Sprague-Dawley rat liver at 15 mg/kg, ip administered twice daily every 12 hrs for 8 days by microarray analysis relative to control; conditions: read-out: FC
# Abca8b = assay: Effect on Abca8b mRNA expression in Sprague-Dawley rat liver at 15 mg/kg, ip administered twice daily every 12 hrs for 8 days by microarray analysis relative to control; conditions: read-out: FC
# Slc38a4 = assay: Effect on Slc38a4 mRNA expression in Sprague-Dawley rat liver at 15 mg/kg, ip administered twice daily every 12 hrs for 8 days by microarray analysis relative to control; conditions: read-out: FC
# Slc27a5 = assay: Effect on Slc27a5 mRNA expression in Sprague-Dawley rat liver at 15 mg/kg, ip administered twice daily every 12 hrs for 8 days by microarray analysis relative to control; conditions: read-out: FC
# Slc39a4 = assay: Effect on Slc39a4 mRNA expression in Sprague-Dawley rat liver at 15 mg/kg, ip administered twice daily every 12 hrs for 8 days by microarray analysis relative to control; conditions: read-out: FC
# Slc17a5 = assay: Effect on Slc17a5 mRNA expression in Sprague-Dawley rat liver at 15 mg/kg, ip administered twice daily every 12 hrs for 8 days by microarray analysis relative to control; conditions: read-out: FC
# Abcb4 = assay: Effect on Abcb4 mRNA expression in Sprague-Dawley rat liver at 15 mg/kg, ip administered twice daily every 12 hrs for 8 days by microarray analysis relative to control; conditions: read-out: FC
# Slc21a10 = assay: Effect on Slc21a10 mRNA expression in Sprague-Dawley rat liver at 15 mg/kg, ip administered twice daily every 12 hrs for 8 days by microarray analysis relative to control; conditions: read-out: FC
# Slc2a2 = assay: Effect on Slc2a2 mRNA expression in Sprague-Dawley rat liver at 15 mg/kg, ip administered twice daily every 12 hrs for 8 days by microarray analysis relative to control; conditions: read-out: FC
# Slc25a29 = assay: Effect on Slc25a29 mRNA expression in Sprague-Dawley rat liver at 15 mg/kg, ip administered twice daily every 12 hrs for 8 days by microarray analysis relative to control; conditions: read-out: FC
smiles,measurement,setting,value
COc1ccc2c3c1O[C@H]1C(=O)CC[C@@]4(O)[C@@H](C2)N(C)CC[C@]314.Cl [OXYCODONE HYDROCHLORIDE],Activity,Rattus norvegicus [1],Active
same,Activity,Rattus norvegicus [2],Active
same,Activity,Rattus norvegicus [3],Active
same,Activity,Rattus norvegicus [4],Active
same,Activity,Rattus norvegicus [5],Active
same,Activity,Rattus norvegicus [6],Active
same,Activity,Rattus norvegicus [7],Active
same,Activity,Rattus norvegicus [8],Active
same,Activity,Rattus norvegicus [9],Active
same,fold induction at 8 days,CYP3A1,12.2
same,fold induction at 8 days,CYP2b2 [10],5
same,fold induction at 8 days,ABCB1,3
same,fold induction at 8 days,CYP17a1,17.1
same,fold induction at 8 days,Por,7
same,fold induction at 8 days,CYP2b2 [11],6
same,fold induction at 8 days,FMO1,3.7
same,fold induction at 8 days,Ugt1a1,1.6
same,fold induction at 8 days,CYP4a10,2
same,fold induction at 8 days,CYP27a1,1.9
same,fold induction at 8 days,CYP4b1,1.9
same,fold induction at 8 days,CYP2a1,1.7
same,fold induction at 8 days,CYP2e1,1.5
same,fold induction at 8 days,Slc16a10,3
same,fold induction at 8 days,Slc22a5,2.8
same,fold induction at 8 days,Abca8b,2.3
same,fold induction at 8 days,Slc38a4,1.8
same,fold induction at 8 days,Slc27a5,1.6
same,fold induction at 8 days,Slc39a4,1.6
same,fold induction at 8 days,Slc17a5,1.5
same,fold induction at 8 days,Abcb4,1.5
same,fold induction at 8 days,Slc21a10,1.5
same,fold induction at 8 days,Slc2a2,1.5
same,fold induction at 8 days,Slc25a29,1.5
